Data as given in patent publication USRE45471E1, “Pharmaceutical composition or combination drug” (Nanocarrier Co., Ltd., priority 2008, dated 2015).
Counter-ions that a name gives are not always drawn.

Test system: CDDP-resistant human lung cancer MOR/CPR cells
Experiment: In vitro cell growth inhibitory effect (WST method) on CDDP-resistant human lung cancer MOR/CPR cells
Format: cell-based
Details: gemcitabine hydrochloride alone, estimated
Procedure: The GI50 value in the case of gemcitabine hydrochloride alone was estimated to be about 10 μg/mL.
The cisplatin coordination compound obtained in Example 1 was prepared as a mannitol solution having a final concentration of 5% so as to contain 2.5 mg/mL in terms of CDDP. […] Furthermore, the concentrations or dosages of the cis-platin coordination compound are all indicated as the concentrations or dosages in terms of CDDP.

GI50: ~10 mg/L
SMILES: Nc1ccn([C@@H]2O[C@H](CO)[C@@H](O)C2(F)F)c(=O)n1 [gemcitabine hydrochloride, Gemcitabine hydrochloride]
